Laboratory results as given in patent US20250295664A1, “THERAPEUTIC COMBINATION OF KRAS G12C INHIBITOR AND TEAD INHIBITOR” (SANOFI, priority 2022, published 2025).

Legend:
Assay type in all cases: cell-based
[1] = system: KRAS G12C mutant NSCLC cell line HOP-62; assay: IC50 shift experiment, cell proliferation (Cell Titer Glo), 144 h; details: for IC50: Homo sapiens, TEAD inhibitor alone, 144 h, read-out: IC50 TEADi; for KRAS G12Ci No1 fold change vs 0.1 μM: IC50 shift of KRAS G12C inhibitor N°1, no TEADi vs TEAD inhibitor 0.1 μM; for KRAS G12Ci No1 fold change vs 1 μM: IC50 shift of KRAS G12C inhibitor N°1, no TEADi vs TEAD inhibitor 1 μM; for KRAS G12Ci No2 fold change vs 0.1 μM: IC50 shift of KRAS G12C inhibitor N°2, no TEADi vs TEAD inhibitor 0.1 μM; for KRAS G12Ci No2 fold change vs 1 μM: IC50 shift of KRAS G12C inhibitor N°2, no TEADi vs TEAD inhibitor 1 μM
Experimental: The KRAS G12C mutant NSCLC cell line HOP-62 was used for this study. Cells were seeded in 96 well plates at 1250 cells per well and incubated 24 hours at 37° C. and 5% CO2. The KRAS G12C inhibitors N°1 and N°2 were used at 10 concentrations and combined with TEAD inhibitors used at 2 concentrations. Compound dilution and distribution to cells was performed on the TECAN MCA384 robotic platform. […] Cell proliferation was measured using Cell Titer Glo from PROMEGA (luminescence). For each KRAS G12C inhibitor, IC50 values in these cell lines were determined in the absence or presence of TEAD inhibitors.

[2] = system: H-2030 KRAS G12C mutant NSCLC cells; assay: Ray design combination experiment, cell proliferation (Cell Titer Glo), 144 h; details: potentiation of KRAS G12C inhibitor N°1 IC50 by the TEAD inhibitor at 41 nM, Ki = potentiation index IC50ai/IC50a
Experimental: (§1) The NSCLC cell line H-2030 which carries a KRASG12C mutation was used for this study. H-2030 cells were seeded in 384 well plates at 250 cells per well and incubated 24 hours at 37° C. and 5% CO2. The KRAS G12C inhibitor N°1 used at 14 concentrations ranging from 10,000 nM to 0.006 nM was combined with TEAD inhibitors used at 18 concentrations ranging from 10,000 nM to 0.0001 nM, added to H-2030 cells and incubated for 144 hours at 37° C. and 5% CO2. Compound dilution and distribution to cells was performed on the TECAN MCA384 robotic platform. Cell proliferation was measured using Cell Titer Glo from PROMEGA (luminescence).
Three independent experiments with triplicates/experiment were performed and analyzed using the combination analysis software Combo2Screen. TEAD inhibitors were defined as non-active in this cell line, their effect on the KRAS G12C inhibitor was determined as an effect of potentiation and was quantified using the potentiation index based on the following equation: […]

[3] = system: HOP-62 KRAS G12C mutant NSCLC cells; assay: Ray design combination experiment, cell proliferation (Cell Titer Glo), 96 h; details: potentiation of KRAS G12C inhibitor N°1 IC50 by the TEAD inhibitor at 370 nM, Ki = potentiation index IC50ai/IC50a
Experimental: as §1, with “line HOP62” for “line H-2030”, “study. HO-P62” for “study. H-2030”, “at 300” for “at 250”, “to HOP-62” for “to H-2030”, “for 96” for “for 144”
Three independent experiments with triplicates per experiment were performed and analyzed using the combination analysis software Combo2Screen. TEAD inhibitors were defined as non-active in this cell line, their effect on the KRAS G12C inhibitor was determined as an effect of potentiation and was quantified using the potentiation index based on the following equation: […]

SMILES	IC50 [1] [µM]	KRAS G12Ci No1 fold change vs 0.1 μM [1] [fold]	KRAS G12Ci No1 fold change vs 1 μM [1] [fold]	KRAS G12Ci No2 fold change vs 0.1 μM [1] [fold]	KRAS G12Ci No2 fold change vs 1 μM [1] [fold]	Mean fold potentiation 1/Ki [2] [fold]	Mean fold potentiation 1/Ki [3] [fold]
C=CC(=O)Nc1ccc2c(c1)C(O[C@H]1CC[C@H](C(F)(F)F)CC1)CC2 (relative stereo) [TEAD inhibitor N°6, N-(3-(((trans)-4-(trifluoromethyl)cyclohexyl)oxy)-2,3-dihydro-1H-inden-5-yl) acrylamide]	> 10	4	6	6	8		
C=CC(=O)Nc1ccc(C)c(Oc2ccc(Cl)cc2)c1 [TEAD inhibitor N°1, N-(3-(4-chlorophenoxy)-4-methylphenyl) acrylamide, reference compound]	8.8	8	9			33	8
C=CC(=O)Nc1ccc2c(c1)CCC2Nc1cccc(C(F)(F)F)c1 (stereo not shown) [TEAD inhibitor N°2, N-(1-((3-(trifluoromethyl)phenyl)amino)-2,3-dihydro-1H-inden-5-yl) acrylamide]						18	8
C=CC(=O)Nc1ccc2c(ccn2-c2ccc(C(F)(F)F)cc2)c1 [TEAD inhibitor N°3, N-(1-(4-(trifluoromethyl)phenyl)-1H-indol-5-yl) acrylamide]	> 10	6	7	9	8		
C=CC(=O)Nc1ccc2c(c1)c(COC)cn2-c1ccc(C(F)(F)F)cc1 [TEAD inhibitor N°4, N-(3-(methoxymethyl)-1-(4-(trifluoromethyl)phenyl)-1H-indol-5-yl) acrylamide]	> 10	5	10	8	12		
C=CC(=O)Nc1ccc2c(c1)c(C)cn2Cc1cccc(C(F)(F)F)c1 [TEAD inhibitor N°5, N-(3-methyl-1-(3-(trifluoromethyl)benzyl)-1H-indol-5-yl) acrylamide]	> 10	4	7	8	13		
C=CC(=O)Nc1ccc2c(c1)C(Nc1ccc(F)c(F)c1)CC2 (stereo not shown) [TEAD inhibitor N°7, N-(3-((3,4-difluorophenyl)amino)-2,3-dihydro-1H-inden-5-yl) acrylamide]	> 10	6	13	9	21		
C=CC(=O)Nc1ccc2c(c1)C(Oc1ccc(C(F)(F)F)cc1)CC2 (stereo not shown) [TEAD inhibitor N°8, N-(3-(4-(trifluoromethyl)phenoxy)-2,3-dihydro-1H-inden-5-yl) acrylamide]	> 10	6	9	10	12		
